Assay results reported in US20250352530A1, “METHOD AND COMPOSITION FOR TREATING LUNG DISEASES” (MannKind Corporation, priority 2024, published 2025).

Assay: Pharmacokinetic study in rats, pulmonary insufflation versus intravenous injection
Format: in vivo, male Sprague Dawley rats
Conditions: 0.8 mg/kg single dose; lung samples 10-240 minutes post administration; FIG. 5
Procedure: Pharmacokinetic studies in rats with Compound I crystalline composite (XC) dry powders—Insufflation studies were performed in rats to deliver doses of dry powders of Compound I, a protein kinase antagonist. The study was performed to determine the pharmacokinetics profile of Compound I dry powders made by the process as described above following pulmonary insufflation, or intravenous injection of a single dose of the composition administered in solution to male Sprague Dawley (Charles River Laboratories) adult rats, weighing between 200 g and 250 g at the time of the study. Dry powder comprising 22.1 wt % actual drug content were used and tested at 1 mg/ml in solution to deliver a dose of 0.8 mg/kg to 18 rats in each study group. Rats acclimatized and anesthetized prior to experimentation. Lung and blood samples were taken from the rats at 10, 20, 30, 120, and 240 minutes, post drug administration.

With `Cc1cccc(-n2ncc(C)c2-c2cc3cnccc3s2)n1` [Compound I, 2-[4-methyl-1-(6-methylpyridin-2-yl)-1H-pyrazol-5-yl]thieno-[3,2-c]pyridine] the “content of Compound I in rat lung, insufflation versus IV injection” value was “a higher content of Compound I was detected in rat lung after insufflation versus IV injection for a longer period of time”.
